Measured values taken from US20080220078A1, “Pharmaceutical Formulations” (Vectura Limited, priority 2004, published 2008).
Where “and” joins values, the source holds several entries; their conditions need not be identical. Equal entries are not always repeated.

Legend:
Type in all cases: physicochemical
[1] = Density Measurements (poured and tapped density)
Protocol: Approximately 5 g of material was placed in a measuring cylinder and the volume noted. The poured density was calculated. The measuring cylinder was tapped 100 times and the volume noted. Tapping was repeated to constant volume and the tapped density calculated. The equipment used was a […] Volumeter STA […].

[2] = XPS surface analysis of powders
Text: The aim of the analysis is to identify the presence of magnesium stearate on the surface of a model of a co-micronised active agent. […] The aim was to show the contrast in surface coating efficiency. The model material, representing the micronised active agent particles, was micronised lactose.
The powders have been analyzed using both TOF-SIMS and XPS. TOF-SIMS provides a mass spectrum of the outermost 1 nm of the surface, and is used here to asses whether the magnesium stearate coverage of the lactose is complete or in patches. XPS provides a spectrum representative of the outermost 10 nm of the surface of the sample and is used here in comparison to the TOF-SIMS data to assess the depth of coverage of the magnesium stearate on the lactose surface.
XPS is a surface analytical technique that can quantify the amount of different chemical species in the outermost 10 nm of a surface. In the simplest form of analysis, XPS measures the relative amount of each element present. Quantitative elemental identification can be achieved down to 1 atom in 1000. AU elements present can be detected with the exception of hydrogen. Elemental analysis may be essential in determining the amount of a surface contaminant or to quantify any surface species with a unique elemental type.

[3] = Zeta potential (Zetasizer 3000HS, in cyclohexane); conditions: average of 10 measurements
Protocol: In addition, the powders were studied using the Zetasizer 3000HS instrument (Malvern Instruments Ltd, UK.) Each sample was tested in cyclohexane, and zeta potential measurements were obtained. Zetasizer measures the zeta potential. This is a measure of the electric potential on a particle in suspension in the hydrodynamic plane of shear. The results are summarized as follows: Each result is an average of 10 measurements.

[4] = single measurements (Measurement 1, Measurement 2)

Number of Taps to Constant Volume ([1]; Stampf Volumeter STA V2003) | Poured Density ([1]; approximately 5 g powder in measuring cylinder) | Tapped Density ([1]; tapped to constant volume) | Area % of C 1s Spectral Envelope, C—C ([2]; Mean) | Area % of C 1s Spectral Envelope, C—O ([2]; Mean) | Area % of C 1s Spectral Envelope, O—C—O ([2]; Mean) | Area % of C 1s Spectral Envelope, O—C═O ([2]; Mean) | Relative Atomic Percentage Composition, C ([2]; Mean) | Relative Atomic Percentage Composition, Mg ([2]; Mean) | Relative Atomic Percentage Composition, O ([2]; Mean) | Area % of C 1s Spectral Envelope, C—C [2, 4] | Area % of C 1s Spectral Envelope, C—O [2, 4] | Area % of C 1s Spectral Envelope, O—C—O [2, 4] | Area % of C 1s Spectral Envelope, O—C═O [2, 4] | Relative Atomic Percentage Composition, C [2, 4] | Relative Atomic Percentage Composition, O [2, 4] | Zeta Potential [3] | Molecule
200 | 0.19 g/ml | 0.24 g/mL |  |  |  |  |  |  |  |  |  |  |  |  |  |  | Salbutamol sulphate
 |  |  | 5.5% | 64.3% | 20.0% | 8.7% | 54.9% | <0.1% | 45.1% | 6.4% and 4.4% | 70.9% and 57.8% | 18.0% and 22.0% | 4.7% and 12.8% | 54.47% and 55.29% | 45.43% and 44.71% | 35.5 mV | OC[C@H]1O[C@@H](O[C@H]2[C@H](O)[C@@H](O)C(O)O[C@@H]2CO)[C@H](O)[C@@H](O)[C@H]1O (some centres unmarked) [Lactose]
